Data from patent US4699928A, “Fluoroallylamine derivatives” (Merrell Dow Pharmaceuticals Inc., priority 1986, dated 1987).

Assays:
MAO-B versus MAO-A = test: Selectivity of inhibition of MAO-B versus MAO-A in vitro (14C phenethylamine / 14C 5-hydroxytryptamine); assay type: biochemical; conditions: rat, brain mitochondria
Protocol: (§1) Mitochondria are prepared from rat brain by homogenation in phosphate buffer (0.1 M, pH 7.2) followed by differential centrifugation. The mitochondria are suspended in the same buffer, the test compound is added at the desired concentration, and the system is incubated. At different time intervals, aliquots are taken and MAO activity is measured using ^14 C p-tyramine (a mixed substrate) as the substrate (See A. Christmas et al., supra).
(C) The selectivity of a compound of Formula I with respect to inhibition of MAO-A and MAO-B can be determined by repeating the procedure of Part B and measuring the MAO activity using ^14 C 5-hydroxytryptamine (a preferred substrate for MAO-A) and ^14 C phenethylamine (a preferred substrate for MAO-B) as the substrate.

[1] = system: heart rate response to p-tyramine; test: Cheese effect: potentiation of response to intraduodenal p-tyramine, anaesthetized rats; assay type: in vivo, male Sprague-Dawley rats; conditions: 18 h, p-tyramine i.d.
Protocol: The following test procedures can be employed to assess the potential of a compound of Formula I for producing the "cheese effect": […]
Eighteen hours later the animals are anaesthetized with pentobarbitone (60 mg/kg i.p.), in some instances pithed, and in all cases set up for recording heart rate and blood pressure by standard techniques.

MAO-A = test: Inhibition of MAO-A ex vivo; assay type: in vivo, male Sprague-Dawley rats; conditions: p.o.; 1080 min
Protocol: The ability of a compound of Formula I to inhibit MAO can be determined ex vivo by the following procedure:
The test compound is administered orally (p.o.) to 300-350 g male Sprague-Dawley rats (Charles River, France) and the animals are killed 18 hours after treatment. The brain, heart, liver and/or duodenum is removed and either a crude homogenate or a mitochondrial fraction, described in Example 5, Part (A), is prepared. MAO activity is determined in the homogenates using ^14 C p-tyramine, as the substrate. Table III gives the results of the testing of (Z)-2-(2',4'-dichlorophenoxy)methyl-3-fluoroallylamine according to the above described procedure. Selectivity can be determined by repeating the above-described test using either ^14 C […] (for MAO-A) or ^14 C phenethylamine (for MAO-B) as the substrate for determining the percentage inhibition.

MAO [2] = test: Inhibition of MAO in vitro, partially purified rat brain mitochondria, 14C p-tyramine substrate; assay type: biochemical; conditions: tested as hydrochloride salt
Text: Inhibition of MAO--In vitro testing
(A) The ability of a compound of Formula I to inhibit MAO can be determined in vitro by the method of A. Christmas et al., Br. J. Pharmacol., 45, 490 (1972) in partially purified mitochondria from rat brain using ^14 C p-tyramine as the substrate. The MAO inhibitory activity of a compound is expressed as the "IC50 " value, which is the molar concentration required to produce 50% inhibition of the enzyme.

MAO [3] = test: Time-dependent kinetics and irreversibility of MAO inhibition, rat brain mitochondria, 14C p-tyramine; assay type: biochemical
Protocol: (B) The compounds of Formula I can be tested to determine whether or not the MAO inhibition follows time-dependent kinetics by the procedure described below:
as §1

- IC50 (MAO [2]): 150 nM
Compound: NC/C(=C/F)COc1ccc(Cl)cc1Cl [(z)-2-(2',4'-dichlorophenoxy)methyl-3-fluoroallylamine]
- Ratio B:A (inhibitory activity against MAO-B versus MAO-A) (MAO-B versus MAO-A): 200
- Potentiation of heart rate response to p-tyramine ([1]; 5 mg/kg by mouth): 1.5 fold
- Potentiation of heart rate response to p-tyramine ([1]; 10 mg/kg by mouth): 2.4 fold
- Potentiation of heart rate response to p-tyramine ([1]; 25 mg/kg by mouth): 2.0 fold
- dose needed to inhibit MAO-A activity by more than 50% (MAO-A): greater than 5 mg/kg
- MAO inhibitory activity versus time of incubation (MAO [3]; 14C p-tyramine): increased as a function of time of incubation
- irreversibility of MAO inhibition (MAO [3]; dialysis against phosphate buffer (24 hours)): irreversible
- initial rate of decrease of activity (MAO [3]; versus concentration of inhibitor): increased with increasing concentration of inhibitor
